Like-named read-outs stand apart in the source and are kept apart here.
What was measured:
[1] = Log P by HPLC on reversed phase columns, method [a] (EEC directive 79/831 Annex V.A8); format: physicochemical; details: reversed phase HPLC column
Method in brief: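 Log P calibrated with C3–C16 straight-chain alkan-2-ones of known Log P, interpolating linearly between retention times. Method per EEC 79/831 Annex V.A8: reversed-phase LC-UV in the acidic range, water/0.1% formic acid and acetonitrile gradient from 10% to 95% acetonitrile.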

[2] = system: Colletotrichum lindemuthianum; assay: Example B: in vitro cell test, spore germination and mycelium growth in liquid culture; format: cell-based; details: 144 h, 20 ppm of tested compound, 6 days incubation, read-out: efficacy (inhibition of fungal growth)
Protocol: • Solvent: dimethyl sulfoxide Culture medium: 14.6 g anhydrous D-glucose (VWR), • 7.1 g mycological peptone (Oxoid), • 1.4 g granulated yeast extract (Merck), QSP 1 liter Inoculum: spore suspension The tested compounds were solubilized in dimethyl sulfoxide and the solution used to prepare the required range of concentrations. The final concentration of dimethyl sulfoxide used in the assay was ≤1%. A spore suspension of Colletotrichum lindemuthianum was prepared and diluted to the desired spore density. The compounds were evaluated for their ability to inhibit spore germination and mycelium growth in liquid culture assay. The compounds were added in the desired concentration to the culture medium with spores. After 6 days incubation, fungi-toxicity of compounds was determined by spectrometric measurement of mycelium growth. Inhibition of fungal growth was determined by comparing the absorbance values in wells containing the tested compounds with the absorbance in control wells without tested compounds.

[3] = system: Botrytis cinerea; assay: Example C: in vivo preventive test (grey mould) on gherkin or cabbage; details: 500 ppm of active ingredient, preventive spray, evaluated 4 to 5 days after inoculation, read-out: efficacy
Protocol: Solvent: 5% by volume of dimethyl sulfoxide • 10% by volume of acetone Emulsifier: 1 μl of Tween® 80 per mg of active ingredient The tested compounds were made soluble and homogenized in a mixture of dimethyl sulfoxide/acetone/Tween® 80 and then diluted in water to the desired concentration. The young plants of gherkin or cabbage were treated by spraying the tested compound prepared as described above. Control plants were treated only with an aqueous solution of acetone/dimethyl sulfoxide/Tween® 80. After 24 hours, the plants were contaminated by spraying the leaves with an aqueous suspension of Botrytis cinerea spores. The contaminated gherkin plants were incubated for 4 to 5 days at 17° C. and at 90% relative humidity. The contaminated cabbage plants were incubated for 4 to 5 days at 20° C. and at 100% relative humidity. The test was evaluated 4 to 5 days after the inoculation. 0% means an efficacy which corresponds to that of the control plants while an efficacy of 100% means that no disease was observed.

[4] = system: Alternaria brassicae; assay: Example E: in vivo preventive test (cabbage); details: 144 h, 500 ppm of tested compound, preventive spray, evaluated 6 days after inoculation, read-out: efficacy
Protocol: Solvent: 5% by volume of dimethyl sulfoxide • 10% by volume of acetone Emulsifier: 1 μL of Tween® 80 per mg of active ingredient The tested compounds were made soluble and homogenized in a mixture of Dimethyl sulfoxide/Acetone/Tween® 80 and then diluted in water to the desired concentration. The young plants of cabbage were treated by spraying the tested compound prepared as described above. Control plants were treated only with an aqueous solution of Acetone/Dimethyl sulfoxide/Tween® 80. After 24 hours, the plants were contaminated by spraying the leaves with an aqueous suspension of Alternaria brassicae spores. The contaminated cabbage plants were incubated for 6 days at 20° C. and at 100% relative humidity. The test was evaluated 6 days after the inoculation. 0% means an efficacy which corresponds to that of the control plants while an efficacy of 100% means that no disease was observed.

[5] = system: Puccinia recondita; assay: Example D: in vivo preventive test (brown rust on wheat); details: 264 h, 500 ppm of tested compound, preventive spray, evaluated 11 days after inoculation, read-out: efficacy
Protocol: Solvent: 5% by volume of dimethyl sulfoxide • 10% by volume of acetone Emulsifier: 1 μL of Tween® 80 per mg of active ingredient The tested compounds were made soluble and homogenized in a mixture of dimethyl sulfoxide/acetone/Tween® 80 and then diluted in water to the desired concentration. The young plants of wheat were treated by spraying the tested compound prepared as described above. Control plants were treated only with an aqueous solution of acetone/dimethyl sulfoxide/Tween® 80. After 24 hours, the plants were contaminated by spraying the leaves with an aqueous suspension of Puccinia recondita spores. The contaminated wheat plants were incubated for 24 hours at 20° C. and at 100% relative humidity and then for 10 days at 20° C. and at 70-80% relative humidity. The test was evaluated 11 days after the inoculation. 0% means an efficacy which corresponds to that of the control plants while an efficacy of 100% means that no disease was observed.

[6] = system: Phakopsora pachyrhizi; assay: Example F: in vivo preventive test (soybeans), DMSO/acetone/Tween 80; details: 288 h, 500 ppm of tested compound, preventive spray, soybean, evaluated 12 days after inoculation, read-out: efficacy
Protocol: Solvent: 5% by volume of dimethyl sulfoxide • 10% by volume of acetone
Emulsifier: 1 μL of Tween® 80 per mg of active ingredient
The tested compounds were made soluble and homogenized in a mixture of dimethyl sulfoxide/acetone/Tween® 80 and then diluted in water to the desired concentration.
The young plants of wheat were treated by spraying the tested compound prepared as described above. Control plants were treated only with an aqueous solution of acetone/dimethyl sulfoxide/Tween® 80.
After 24 hours, the plants were contaminated by spraying the leaves with an aqueous suspension of Phakospora pachyrhizi spores. The contaminated soybean plants were incubated for 24 hours at 24° C. and at 100% relative humidity and then for 11 days at 24° C. and at 70-80% relative humidity.
The test was evaluated 12 days after the inoculation. 0% means an efficacy which corresponds to that of the control plants while an efficacy of 100% means that no disease was observed.

[7] = log P determined according to method [a] (HPLC on reversed phase columns), read-out: logP
[8] = method [a], HPLC on reversed phase columns, read-out: logP

Structure (SMILES) | chromatographic logP [1, 7] | chromatographic logP ([1]; Method A: LC-UV, acidic range, 0.1% formic acid in water and acetonitrile, read-out: Log P) | chromatographic logP [1, 8] | inhibition of growth at 20 µg/mL [2] | pest or weed control at 500 ppm [3] | pest or weed control at 500 µg/mL [4] | pest or weed control at 500 µg/mL [5] | pest or weed control at 500 µg/mL [6]
Nc1ccc(-c2nnc(C(F)F)o2)cn1 [I.030, 5-[5-(difluoromethyl)-1,3,4-oxadiazol-2-yl]pyridin-2-amine] | – | – | – | – | 80 to 89% | – | – | –
CC(=O)Nc1ccc(-c2nnc(C(F)F)o2)cn1 [I.034, N-{5-[5-(difluoromethyl)-1,3,4-oxadiazol-2-yl]pyridin-2-yl}acetamide] | – | – | – | – | 80 to 89% | – | – | –
CC1(C(=O)Nc2ccc(-c3nnc(C(F)F)o3)cn2)CC1 [I.045, N-{5-[5-(difluoromethyl)-1,3,4-oxadiazol-2-yl]pyridin-2-yl}-1-methylcyclopropanecarboxamide] | – | – | – | – | 90 to 100% | 90 to 100% | – | –
O=C(Cc1ccccc1)Nc1ccc(-c2nnc(C(F)F)o2)cn1 [I.050, N-{5-[5-(difluoromethyl)-1,3,4-oxadiazol-2-yl]pyridin-2-yl}-2-phenylacetamide] | – | – | – | – | 80 to 89% | – | – | –
Fc1ccccc1Nc1ccc(-c2nnc(C(F)(F)Cl)o2)cn1 [I.053, 5-{5-[chloro(difluoro)methyl]-1,3,4-oxadiazol-2-yl}-N-(2-fluorophenyl)pyridin-2-amine] | – | – | – | – | 80 to 89% | – | – | –
Fc1ccc(-c2ncc(-c3nnc(C(F)F)o3)cn2)cc1 [I.077, 5-[5-(difluoromethyl)-1,3,4-oxadiazol-2-yl]-2-(4-fluorophenyl)pyrimidine] | – | – | – | 90 to 100% | 70 to 79% | – | – | –
Cc1ccc(C2(Nc3ncc(-c4nnc(C(F)F)o4)cn3)CC2)cc1 [I.133, 5-[5-(difluoromethyl)-1,3,4-oxadiazol-2-yl]-N-[1-(4-methylphenyl)cyclopropyl]pyrimidin-2-amine] | 3 | – | – | – | – | 70 to 79% | 90 to 100% | 90 to 100%
FC(F)c1nnc(-c2cnc(NC3(c4ccccn4)CCC3)nc2)o1 [I.137, 5-[5-(difluoromethyl)-1,3,4-oxadiazol-2-yl]-N-[1-(pyridin-2-yl)cyclobutyl]pyrimidin-2-amine] | 1.2 | – | – | – | – | 90 to 100% | 90 to 100% | 90 to 100%
Fc1cccc(C2(Nc3ncc(-c4nnc(C(F)F)o4)cn3)CC2)c1 [I.145, 5-[5-(difluoromethyl)-1,3,4-oxadiazol-2-yl]-N-[1-(3-fluorophenyl)cyclopropyl]pyrimidin-2-amine] | 2.72 | – | – | 80 to 89% | – | – | 90 to 100% | 90 to 100%
CC(C)(Nc1ncc(-c2nnc(C(F)F)o2)cn1)c1ccc(F)cc1 [I.150, 5-[5-(difluoromethyl)-1,3,4-oxadiazol-2-yl]-N-[2-(4-fluorophenyl)propan-2-yl]pyrimidin-2-amine] | – | 3.26 | – | 80 to 89% | – | 70 to 79% | 90 to 100% | 90 to 100%
FC(F)c1nnc(-c2cnc(NC3(c4ccccc4)CCCC3)nc2)o1 [I.153, 5-[5-(difluoromethyl)-1,3,4-oxadiazol-2-yl]-N-(1-phenylcyclopentyl)pyrimidin-2-amine] | 3.57 | – | – | – | 70 to 79% | – | – | –
COc1cccc(C2(Nc3ncc(-c4nnc(C(F)F)o4)cn3)CC2)c1 [I.156, 5-[5-(difluoromethyl)-1,3,4-oxadiazol-2-yl]-N-[1-(3-methoxyphenyl)cyclopropyl]pyrimidin-2-amine] | 2.62 | – | – | – | – | 90 to 100% | 90 to 100% | 90 to 100%

Continued, in another order:

chromatographic logP [1, 7] | chromatographic logP ([1]; Method A: LC-UV, acidic range, 0.1% formic acid in water and acetonitrile, read-out: Log P) | chromatographic logP [1, 8] | Structure (SMILES) | inhibition of growth at 20 µg/mL [2] | pest or weed control at 500 ppm [3] | pest or weed control at 500 µg/mL [4] | pest or weed control at 500 µg/mL [5] | pest or weed control at 500 µg/mL [6]
3.72 | – | – | CC(Sc1ncc(-c2nnc(C(F)F)o2)cn1)c1ccccc1 (racemic) [I.123, 5-[5-(difluoromethyl)-1,3,4-oxadiazol-2-yl]-2-{[(1RS)-1-phenylethyl]sulfanyl}pyrimidine] | 90 to 100% | 90 to 100% | – | – | –
2.99 | – | – | Fc1ccccc1Nc1ncc(-c2nnc(C(F)(F)F)o2)cn1 [I.116, N-(2-fluorophenyl)-5-[5-(trifluoromethyl)-1,3,4-oxadiazol-2-yl]pyrimidin-2-amine] | – | 80 to 89% | – | – | –
2.62 | – | – | COc1ccc(C2(Nc3ncc(-c4nnc(C(F)F)o4)cn3)CC2)cc1 [I.157, 5-[5-(difluoromethyl)-1,3,4-oxadiazol-2-yl]-N-[1-(4-methoxyphenyl)cyclopropyl]pyrimidin-2-amine] | 80 to 89% | – | 70 to 79% | 90 to 100% | 90 to 100%
2.97 | – | – | COc1ccccc1CN(OC)c1ncc(-c2nnc(C(F)F)o2)cn1 [I.161, N-{5-[5-(difluoromethyl)-1,3,4-oxadiazol-2-yl]pyrimidin-2-yl}-N-(2-methoxybenzyl)-O-methylhydroxylamine] | – | 70 to 79% | – | – | –
3.47 | – | – | Fc1ccccc1C1(Nc2ncc(-c3nnc(C(F)(F)F)o3)cn2)CC1 [I.165, N-[1-(2-fluorophenyl)cyclopropyl]-5-[5-(trifluoromethyl)-1,3,4-oxadiazol-2-yl]pyrimidin-2-amine] | 80 to 89% | – | – | 90 to 100% | 90 to 100%
3.37 | – | – | FC(F)c1nnc(-c2cnc(Nc3ccccc3-c3ccccc3)nc2)o1 [I.166, N-([biphenyl]-2-yl)-5-[5-(difluoromethyl)-1,3,4-oxadiazol-2-yl]pyrimidin-2-amine] | 80 to 89% | – | 70 to 79% | 90 to 100% | 90 to 100%
– | – | 3.67 | FC(F)c1nnc(-c2cnc(NC3(c4cccc(Cl)c4)CCC3)nc2)o1 [I.175, N-[1-(3-chlorophenyl)cyclobutyl]-5-[5-(difluoromethyl)-1,3,4-oxadiazol-2-yl]pyrimidin-2-amine] | 80 to 89% | – | 70 to 79% | 90 to 100% | –
– | – | 3.5 | Fc1cccc(F)c1C1(Nc2ncc(-c3nnc(C(F)F)o3)cn2)CCC1 [I.177, 5-[5-(difluoromethyl)-1,3,4-oxadiazol-2-yl]-N-[1-(2,6-difluorophenyl)cyclobutyl]pyrimidin-2-amine] | 90 to 100% | – | 80 to 89% | 90 to 100% | 90 to 100%

— US20220144815A1, “1,3,4-OXADIAZOLES AND THEIR DERIVATIVES AS NEW ANTIFUNGAL AGENTS” (Bayer Aktiengesellschaft, priority 2018, published 2022)
